Experiment [1] deals with BMDCs. Description: Antigen-presentation assay using the B3Z reporter system, BMDCs. Format: cell-based, mouse. The conditions noted are these: for antigen cross-presentation of OVA (B3Z response) vs OVA alone / antigen-presentation activity of cholic acid-NLS peptide conjugates (B3Z response): BMDCs; for antigen cross-presentation of OVA (B3Z response) vs OVA alone: OVA mixed with bile acid/peptide/conjugate, molar ratio 4:1; for antigen-presentation activity of cholic acid-NLS peptide conjugates (B3Z response): OVA admixed, best conjugate: antigen ratio. As to the method: Mouse bone marrow derived DCs (BMDCs) were generated by flushing the whole marrow from mouse femurs using RPMI™ 1640 supplemented with 10% fetal bovine serum (FBS), 50 U/mL Penicillin-Streptomycin, 2 mM L-glutamine, 10 mM HEPES, 1% MEM Non-essential Amino Acids, 1 mM Sodium Pyruvate, 0.5 mM beta-mercaptoethanol. Following red blood cell lysis, cells were then cultured in media supplemented with 50 ng/mL murine recombinant GM-CSF. The media was changed on days 2, 4, 6 and 8. On day 9, the media was replaced to include recombinant murine GM-CSF and LPS from Escherichia coli 0111 (1 ng/mL) to stimulate DC maturation. Mature DCs were assessed by flow cytometry for their surface expression of CD3, CD19, NK1.1, CD11c, CD80, CD86, and I-A^b.
(§1) Various bile acid-NLS conjugates were screened using the B3Z reporter system. The B3Z cell line is a T-cell hybridoma specific for the H2-K^b-[…] complex. Once activated via its TCR, the LacZ reporter gene (under the NFAT promoter control) is expressed. Briefly, 1.5×10^5 BMDCs or 2.5×10^5 MSCs were co-cultured with 5×10^4 B3Z cells treated with the mixing conditions of ovalbumin (OVA) and bile acid-NLS conjugates for overnight at 37° C. with 5% CO2. The following day, all cells were washed twice with PBS (pH 7.4), and the cell pellets were lysed by adding 100 μL of a lysis buffer containing 0.15 mM chlorophenol red-beta-D-galactopyranoside (CPRG) substrate (Calbiochem, La Jolla, CA), 0.125% NP40 (EMD Sciences, La Jolla, CA), 9 mM MgCl2 (Aldrich, USA) and 100 mM 2-mercaptoethanol in PBS. After a 5- or 24-h incubation at 37° C., absorbance was taken at 570 nm with 636 nm as the reference wavelength. For these experiments, OVA was re-suspended in PBS (pH 7.3) at 5-10 mg/mL. The different bile acid-NLS conjugates were re-suspended in H2O at 10 mg/mL. Bile acid-NLS conjugate: antigen mixtures were prepared at different molar ratios according to Table 1.
Variants of CA-SV40NLS were synthesized in order to explore structure-activity relationships relating to the antigen cross-presentation enhancing activity observed for this conjugate, and therefore a measure of antigen/cargo delivery. More particularly, conjugates having different bile acids conjugated to the SV40NLS peptide (SEQ ID NO: 1) were synthesized and their effect on antigen presentation was evaluated by using the B3Z reporter system with the OVA antigen as described in Example 1. […] In FIG. 11, no increase in antigen cross-presentation in BMDCs over the antigen alone (“OVA”) was observed when OVA was mixed with either unconjugated cholic acid (“CA”) or SV40NLS peptide (“SV40NLS”), although lower sensitivity of the B3Z reporter system as compared to the OT-I CD8 T cell-based assay may have been a factor.
(§2) Further variants of CA-SV40NLS were synthesized in which the SV40NLS peptide was replaced with peptides comprising other NLS's (Table 5) and the antigen presentation activities of the CA-NLS peptide conjugates were evaluated using the B3Z reporter system as described in Example 1. The following conjugate: antigen molar ratios were tested for each conjugate: 2:1, 4:1, 8:1, 12:1 and 22:1. The results in FIGS. 12-15 compare the antigen presentation activities of different conjugates at the conjugate: antigen ratio that yielded the highest B3Z response (OD570) for that conjugate.

For experiment [2], the system named is WT MSCs. The experiment in a line: Antigen cross-presentation assay on wild-type MSCs with B3Z cells. It counts as cell-based, mouse. Conditions: WT MSCs treated with CA-hnRNPA1 and OVA. As to the method:
In order to generate Bone marrow (BM)-derived mouse MSCs, the femurs of 6-8-week-old female Balb/c or C57BL/6 mice were isolated and flushed with Alpha Modification of Eagle's Medium (AMEM) supplemented with 10% FBS and 50 U/mL Penicillin-Streptomycin in a 10 cm cell culture dish, then incubated at 37° C. Two days later, non-adherent cells were removed and the media replaced every 3 to 4 days until plastic-adherent cells reached 80% confluency. The generated cells were detached using 0.05% trypsin and expanded until a uniform MSC population was obtained. The generated MSCs were validated for their innate phenotype by flow-cytometry for the expression of CD44, CD45, CD73, and CD90. The cells were frozen in liquid nitrogen until use.
To assess cross-presentation assay, 25×10^3 cells MSCs were seeded per well in 24-well plate then pulsed with steroid acid peptide-conjugated for 6 h admixed with OVA. At the end of the pulsing period, the cells were washed to remove excess antigen then 5×10^4 B3Z cells. The cells were incubated for 17-19 hours prior to their lysis and incubation for another 4-6 hours at 37° C. with a CPRG solution. The optical density signal was detected at wavelength 570 using a SynergyH1™ microplate reader (Biotek, Winooski, VT, United States).
To determine whether a similar effect occurs in wild type (WT) (i.e., non-engineered) MSCs, BM-derived MSCs (Example 1) were used instead in the same cross presentation assay with B3Z responder cells.

Experiment [3] concerns cross-presenting mesenchymal stromal cell line (cpMSC). Description: Antigen-presentation assay using the B3Z reporter system, cross-presenting MSC line. Format: cell-based. Conditions: cpMSCs, OVA admixed, vs OVA alone or OVA mixed with CA-SV40NLS. The procedure: as §1, §2
The subject of experiment [4] is cpMSCs. Description: OVA-AF647 internalization in cpMSCs, flow cytometry. Conditions: various molar ratios. Format: cell-based. As to the method:
For this experiment, a cross-presenting mesenchymal stromal cell line (cpMSC) was used as the antigen presenting cells, which were pulsed with the OVA cargo labelled with Alexa Fluor 647 (i.e., OVA^647)^TM. OVA^647 fluorescence was measured by flow cytometry. Different ratios of CA (NLS1 RPS17 [FIG. 16A]; NLS3 RPS17 [FIG. 16B]; and PQBP-1 [FIG. 16C] to antigen (CA: OVA=22:1, 12:1, 8:1, 4:1, and 2:1) were tested (hnRNPA1 M9 NLS at 2:1).
(§3) To further dissect the effect of bile acid peptide conjugates on antigen presentation, antigen internalization and processing were evaluated. cpMSCs were pulsed with OVA-labelled with AF647 in the presence of various molar ratios of different bile acid peptide conjugates, NLS1-RPS17 [FIG. 16A]; NLS3 RPS17 [FIG. 16B]; PQBP-1 [FIG. 16C]; and hnRNPA1 M9 NLS [FIG. 6]) and fluorescence was assessed by flow cytometry. […] OVA processing was assessed by pulsing cpMSCs with DQ™-Ovalbumin (OVA-DQ) in the presence of the same bile acid peptide conjugates as in FIGS. 6 and 16.
In general terms: Flow cytometry measures light scatter and fluorescence of single cells or particles in a stream.

For experiment [5], the system named is cpMSCs. The experiment in a line: OVA-DQ processing in cpMSCs, flow cytometry. It counts as cell-based. The conditions noted are these: various molar ratios. As to the method:
For this experiment, a cross-presenting mesenchymal stromal cell line (cpMSC) was used as the antigen presenting cells, which were pulsed with DQ™ Ovalbumin (i.e., OVADQ). OVADQ fluorescence was measured by flow cytometry. Different ratios of CA (NLS1 RSP17 [FIG. 17A]; NLS3 RPS17 [FIG. 17B]; and PQBP-1 [FIG. 17C] to antigen (CA: OVA=22:1, 12:1, 8:1, 4:1, and 2:1) were tested (hnRNPA1 M9 NLS at 2:1).
as §3

Where no end group is shown, it is not given here.

On to `C[C@H](CCC(=O)O)[C@H]1CC[C@H]2[C@@H]3[C@H](O)C[C@@H]4C[C@H](O)CC[C@]4(C)[C@H]3C[C@H](O)[C@]12C` [CA, cholic acid, reference compound], for which the “antigen cross-presentation of OVA (B3Z response) vs OVA alone” value (“antigen cross-presentation … vs OVA alone” below) in experiment [1] is on record as “no increase”.

As for `c1ccc2c(c1)[I+]c1ccccc1-2` [DPI, diphenyleneiodonium chloride], the “effect of inhibitor on the antigen cross-presentation capacity of CA-hnRNPA1” value (“effect of inhibitor” below) in experiment [2] was “neutralization”.

On to `C[C@H](CCC(=O)NCC(=O)O)[C@H]1CC[C@H]2[C@@H]3[C@@H](O)C[C@@H]4C[C@H](O)CC[C@]4(C)[C@H]3CC[C@]12C` [GUDCA, glycoursodeoxycholic acid, reference compound], for which, in experiment [1] (2:1, 4:1, 8:1, 12:1 and 22:1), the “immunogen enhancer activity across GUDCA: OVA molar ratios” value is “observed at all GUDCA: OVA molar ratios tested”. Besides, in experiment [1] (OVA mixed with unconjugated GUDCA, 22:1, data not shown), the “increase in B3Z response (OD570) over OVA alone” value was not above 30%.

On to `CC(=O)c1ccc2c(c1)Nc1ccccc1S2` [ML171], for which the “effect of inhibitor” value in experiment [2] is on record as “neutralization”.

Take `CC1(C)CC(NC(=O)C[P+](c2ccccc2)(c2ccccc2)c2ccccc2)CC(C)(C)N1[O]` [MitoTempo™]: the “effect of inhibitor” value in experiment [2] is recorded as “did not neutralize”.

Regarding `CC(=O)N[C@@H](CS)C(=O)O` [N-acetylcysteine], the “effect of inhibitor” value in experiment [2] was “neutralization”.

`Cc1c(C)c2c(c(C)c1O)CC[C@@](C)(CCC[C@H](C)CCC[C@H](C)CCCC(C)C)O2` [α-tocopherol]: in experiment [2], the “effect of inhibitor” value is given as “neutralization”.

As to “GCDCA: glycochenodeoxycholic acid conjugated to the SV40NLS peptide (SEQ ID NO: 1) ({Glycochenodeoxycholic acid}-CGYGPKKKRKVGG; also: glycochenodeoxycholic acid conjugate, MOD_RES 1 Cholic Acid (ChAc))”, the “antigen cross-presentation … vs OVA alone” value in experiment [1] is on record as “comparable or higher”.

Regarding “GWG-SV40NLS: cholic acid conjugated to peptide CGWWGYGPKKKRKVGGWWG (SEQ ID NO: 3) (not fully specified (N-terminus); also: cholic acid conjugate, site not given here)”, the “antigen-presentation activity of cholic acid-NLS peptide conjugates (B3Z response)” value (“antigen-presentation activity” for short) in experiment [1] was “higher antigen-presentation activity than SV40NLS”; in experiment [3], “strikingly high antigen-presentation activity”.

In the case of “NLS2-RG Domain RPS17: cholic acid conjugated to NLS2-RG Domain RPS17 peptide (SEQ ID NO: 8) (CNKRVCEEIAIIPSKKLRNKGSGRIQRGPVRGIS; cysteine pairing not given here; also: cholic acid conjugate, site not given here)”, the “antigen-presentation activity” value in experiment [1] is “high antigen presentation activity”.

On to “NLS3-RPS17: cholic acid conjugated to NLS3 RPS17 peptide SKKLRNKIAGYVTHLMKRI (SEQ ID NO: 11)”, for which the “antigen-presentation activity” value in experiment [1] is reported as “high antigen presentation activity”. Besides, the “OVA internalization (OVA-AF647 fluorescence)” value in experiment [4] is reported as “enhance OVA internalization”. For the same molecule, the “OVA processing (OVA-DQ fluorescence)” value in experiment [5] was “enhance OVA processing”.

With “PQBP-1 NLS: cholic acid conjugated to PQBP-1 NLS peptide CADREEGKERRHHRREELAPY (SEQ ID NO: 7) (not fully specified (N-terminus); also: cholic acid conjugate, site not given here)”, the “antigen-presentation activity” value in experiment [1] and in experiment [3] was “strikingly high antigen-presentation activity” throughout. The “OVA internalization (OVA-AF647 fluorescence)” value in experiment [4] was “enhance OVA internalization”. Moreover, in experiment [5], the “OVA processing (OVA-DQ fluorescence)” value is “enhance OVA processing”.

For the molecule “SV40NLS: unconjugated NLS peptide CGYGPKKKRKVGG (SEQ ID NO: 1) (not fully specified) [reference compound]”, the “antigen cross-presentation … vs OVA alone” value in experiment [1] is given as “no increase”.

On to “UDCA: ursodeoxycholic acid conjugated to the SV40NLS peptide (SEQ ID NO: 1) (CGYGPKKKRKVGG; not fully specified (N-terminus); also: ursodeoxycholic acid conjugate, site not given here)”, for which the “antigen cross-presentation … vs OVA alone” value in experiment [1] is on record as “comparable or higher”.

Turning to “cMyc NLS: cholic acid conjugated to cMyc NLS peptide CGYGPAAKRVKLDGG (SEQ ID NO: 12) (not fully specified (N-terminus); also: cholic acid conjugate, site not given here)”, in experiment [1], the “antigen-presentation activity” value is reported as “high antigen presentation activity”.

(Values after US20250049914A1, “STEROID ACID-PEPTIDE BASED INTRACELLULAR CARGO DELIVERY” (DEFENCE THERAPEUTICS INC., priority 2021, published 2025).)
